ChEMBL document CHEMBL5113372, “Paradigm shift of "classical" HDAC inhibitors to "hybrid" HDAC inhibitors in therapeutic interventions” (Eur J Med Chem, 2021)

Tests used:
HCT-116 = assay: Cytotoxicity against human HCT-116 cells assessed as inhibition of cell proliferation incubated for 72 hrs by MTT assay; type: functional, cell-based; conditions: HCT-116, 72 h
Histone deacetylase 1 [1] = target: T1, Histone deacetylase 1 (Homo sapiens, UniProt Q13547); assay: Inhibition of recombinant human HDAC1 expressed in baculovirus infected Hi-5 insect cells using Ac-Lys-Tyr-Lys (epsilon-acetyl)-AMC as substrate incubated for 3 to 24 hrs by fluorescence based plate reader analysis
Histone deacetylase 3 [2] = target: T2, Histone deacetylase 3 (Homo sapiens, UniProt O15379); assay: Inhibition of recombinant human HDAC3 expressed in baculovirus infected Hi-5 insect cells using Ac-Lys-Tyr-Lys (epsilon-acetyl)-AMC as substrate incubated for 3 to 24 hrs by fluorescence based plate reader analysis
Histone deacetylase 2 [3] = target: T3, Histone deacetylase 2 (Homo sapiens, UniProt Q92769); assay: Inhibition of recombinant human HDAC2 expressed in baculovirus infected Hi-5 insect cells using Ac-Lys-Tyr-Lys (epsilon-acetyl)-AMC as substrate incubated for 3 to 24 hrs by fluorescence based plate reader analysis
A549 [4] = assay: Cytotoxicity against human A549 cells assessed as inhibition of cell proliferation incubated for 72 hrs by MTT assay; type: functional, cell-based; conditions: A549, 72 h
[5] = target: Phosphatidylinositol 4,5-bisphosphate 3-kinase catalytic subunit alpha isoform (Homo sapiens, UniProt P42336); assay: Inhibition of PI3K-alpha (unknown origin)
[6] = target: T4, Protein deacetylase HDAC6 (Homo sapiens, UniProt Q9UBN7); assay: Inhibition of HDAC6 (unknown origin)
T4 sequence (Q9UBN7 whole entry): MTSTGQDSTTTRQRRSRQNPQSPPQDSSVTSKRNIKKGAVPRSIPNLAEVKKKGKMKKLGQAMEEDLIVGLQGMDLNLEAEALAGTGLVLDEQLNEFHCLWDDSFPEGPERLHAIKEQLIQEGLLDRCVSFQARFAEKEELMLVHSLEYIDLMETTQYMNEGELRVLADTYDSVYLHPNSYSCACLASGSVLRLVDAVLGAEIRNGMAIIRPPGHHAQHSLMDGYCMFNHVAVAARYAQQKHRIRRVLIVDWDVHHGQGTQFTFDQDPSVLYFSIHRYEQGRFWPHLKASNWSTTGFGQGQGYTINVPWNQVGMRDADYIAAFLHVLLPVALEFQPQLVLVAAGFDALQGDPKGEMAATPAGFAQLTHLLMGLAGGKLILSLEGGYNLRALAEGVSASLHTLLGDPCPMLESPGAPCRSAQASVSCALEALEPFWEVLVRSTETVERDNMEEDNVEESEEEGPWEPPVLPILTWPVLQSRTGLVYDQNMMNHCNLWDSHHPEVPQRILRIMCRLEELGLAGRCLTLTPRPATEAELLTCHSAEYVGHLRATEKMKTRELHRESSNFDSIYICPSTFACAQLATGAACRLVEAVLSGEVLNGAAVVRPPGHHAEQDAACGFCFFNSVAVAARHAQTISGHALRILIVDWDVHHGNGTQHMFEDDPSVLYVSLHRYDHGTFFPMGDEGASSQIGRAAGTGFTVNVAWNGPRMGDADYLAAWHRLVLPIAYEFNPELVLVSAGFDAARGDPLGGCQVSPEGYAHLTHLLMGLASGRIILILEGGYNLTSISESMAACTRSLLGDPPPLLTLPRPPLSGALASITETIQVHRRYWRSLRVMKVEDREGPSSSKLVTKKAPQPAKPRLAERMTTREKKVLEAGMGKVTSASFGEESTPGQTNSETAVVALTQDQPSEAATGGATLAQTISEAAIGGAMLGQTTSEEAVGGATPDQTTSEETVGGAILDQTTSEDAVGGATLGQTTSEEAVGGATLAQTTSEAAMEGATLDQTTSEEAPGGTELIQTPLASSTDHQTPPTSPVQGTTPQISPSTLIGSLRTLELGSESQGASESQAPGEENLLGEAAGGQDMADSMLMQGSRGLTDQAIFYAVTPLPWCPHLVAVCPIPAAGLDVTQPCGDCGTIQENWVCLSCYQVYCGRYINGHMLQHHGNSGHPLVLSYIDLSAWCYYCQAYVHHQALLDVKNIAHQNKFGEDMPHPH

Histone deacetylase 2 [7] = target: T3, Histone deacetylase 2; assay: Inhibition of HDAC2 (unknown origin)
[8] = system: Panel NCI-60 (60 carcinoma cell lines); assay: Cytotoxicity against human Panel NCI-60 (60 carcinoma cell lines) cells assessed as cell growth inhibition; type: functional, cell-based
Histone deacetylase 5 = Histone deacetylase 5 (Homo sapiens, UniProt Q9UQL6); assay: Inhibition of HDAC5 (unknown origin)
Histone deacetylase 1 [9] = target: T1, Histone deacetylase 1; assay: Inhibition of HDAC1 (unknown origin)
Histone deacetylase 4 = Histone deacetylase 4 (Homo sapiens, UniProt P56524); assay: Inhibition of HDAC4 (unknown origin)
Histone deacetylase 3 [10] = target: T2, Histone deacetylase 3; assay: Inhibition of HDAC3 (unknown origin)
[11] = target: Protein kinase C alpha type (Mus musculus, UniProt P20444); assay: Binding affinity to mouse PKC-alpha assessed as inhibition constant
A549 [12] = assay: Antiinvasive activity against human A549 cells assessed as reduction in cell invasion incubated for 24 hrs by microplate reader analysis relative to control; type: functional; design: scale not given: the % may be the effect or the level left
[13] = target: 72 kDa type IV collagenase (Homo sapiens, UniProt P08253); assay: Inhibition of MMP2 (unknown origin) using chromogenic substrate incubated for 1 hr followed by substrate addition measured for 30 mins by microplate photometry
Histone deacetylase 8 = target: T5, Histone deacetylase 8 (Homo sapiens, UniProt Q9BY41); assay: Inhibition of recombinant human HDAC8 using Fluor-de-lys substrate by fluorescence based microplate reader analysis
T5 sequence (Q9BY41 whole entry): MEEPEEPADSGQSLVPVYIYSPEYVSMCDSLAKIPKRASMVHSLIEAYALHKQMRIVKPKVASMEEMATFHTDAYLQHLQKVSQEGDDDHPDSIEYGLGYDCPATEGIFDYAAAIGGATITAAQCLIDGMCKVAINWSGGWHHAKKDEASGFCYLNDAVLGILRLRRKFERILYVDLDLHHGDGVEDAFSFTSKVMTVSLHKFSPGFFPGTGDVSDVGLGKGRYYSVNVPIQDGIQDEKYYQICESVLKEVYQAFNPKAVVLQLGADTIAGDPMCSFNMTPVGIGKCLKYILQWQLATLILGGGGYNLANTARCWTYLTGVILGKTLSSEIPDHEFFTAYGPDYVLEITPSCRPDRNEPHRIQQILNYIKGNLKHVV

[14] = target: T6, cGMP-specific 3',5'-cyclic phosphodiesterase (Homo sapiens, UniProt O76074); assay: Inhibition of PDE5A (unknown origin)
SMMC-7721 = assay: cells; type: functional, cell-based; conditions: Homo sapiens, SMMC-7721, 48 h
[15] = target: T7, High affinity cGMP-specific 3',5'-cyclic phosphodiesterase 9A (Homo sapiens, UniProt O76083); assay: Inhibition of N-terminal GST-tagged full-length human PDE9A2 expressed in baculovirus infected Sf9 insect cells using cGMP as substrate incubated for 30 mins by HTRF assay
[16] = target: T4, Protein deacetylase HDAC6; assay: Inhibition of full-length recombinant human HDAC6 (1 to 1215 residues) expressed in Sf9 insect cells using fluorogenic substrate incubated for 30 mins by fluorescence based plate reader analysis
Histone deacetylase 1 [17] = target: T1, Histone deacetylase 1; assay: Inhibition of C-terminal 6xHis/FLAG-tagged full-length recombinant human HDAC1 (1 to 482 residues) expressed in Sf9 insect cells using fluorogenic substrate incubated for 30 mins by fluorescence based plate reader analysis
[18] = target: T6, cGMP-specific 3',5'-cyclic phosphodiesterase; assay: Inhibition of N-terminal GST-tagged full-length recombinant human PDE5A1 (1 to 875 residues) expressed in Sf9 insect cells using cGMP as substrate incubated for 30 mins by HTRF assay
[19] = Inhibition of PDE5 (unknown origin); design: species or system Homo sapiens
[20] = target: T7, High affinity cGMP-specific 3',5'-cyclic phosphodiesterase 9A; assay: Inhibition of PDE9 (unknown origin)
A549 [21] = assay: Anti-proliferative activity against human A549 cells assessed as cell growth inhibition by MTT assay; type: functional, cell-based
Cortical neurone = assay: Neuroprotective activity against glutamate-induced mouse primary cortical neurons assessed as neuronal viability incubated for 24 hrs by MTT assay; type: functional, cell-based
[22] = target: Protein-glutamine gamma-glutamyltransferase (Homo sapiens, UniProt P21980); assay: Inhibition of recombinant human TG2 using N-Cbz-Glu(gamma-p-nitrophenylester) as substrate measured for 10 mins by absorbance based microplate reader analysis

T3 sequence (Q92769 whole entry): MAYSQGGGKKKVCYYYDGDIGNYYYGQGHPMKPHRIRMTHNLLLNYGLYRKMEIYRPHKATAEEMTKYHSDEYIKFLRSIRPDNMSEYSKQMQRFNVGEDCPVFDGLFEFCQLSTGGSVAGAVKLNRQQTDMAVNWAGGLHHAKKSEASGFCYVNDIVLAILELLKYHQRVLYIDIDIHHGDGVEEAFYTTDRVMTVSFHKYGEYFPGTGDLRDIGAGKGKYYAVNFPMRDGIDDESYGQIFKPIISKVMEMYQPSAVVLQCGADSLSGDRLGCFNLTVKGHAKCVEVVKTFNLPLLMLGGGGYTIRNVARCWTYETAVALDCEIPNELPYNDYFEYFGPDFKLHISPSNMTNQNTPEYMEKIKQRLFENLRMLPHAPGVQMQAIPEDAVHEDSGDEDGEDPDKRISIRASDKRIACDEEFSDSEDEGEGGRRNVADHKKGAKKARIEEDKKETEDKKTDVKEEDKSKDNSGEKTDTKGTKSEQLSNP
T1 sequence (Q13547 whole entry): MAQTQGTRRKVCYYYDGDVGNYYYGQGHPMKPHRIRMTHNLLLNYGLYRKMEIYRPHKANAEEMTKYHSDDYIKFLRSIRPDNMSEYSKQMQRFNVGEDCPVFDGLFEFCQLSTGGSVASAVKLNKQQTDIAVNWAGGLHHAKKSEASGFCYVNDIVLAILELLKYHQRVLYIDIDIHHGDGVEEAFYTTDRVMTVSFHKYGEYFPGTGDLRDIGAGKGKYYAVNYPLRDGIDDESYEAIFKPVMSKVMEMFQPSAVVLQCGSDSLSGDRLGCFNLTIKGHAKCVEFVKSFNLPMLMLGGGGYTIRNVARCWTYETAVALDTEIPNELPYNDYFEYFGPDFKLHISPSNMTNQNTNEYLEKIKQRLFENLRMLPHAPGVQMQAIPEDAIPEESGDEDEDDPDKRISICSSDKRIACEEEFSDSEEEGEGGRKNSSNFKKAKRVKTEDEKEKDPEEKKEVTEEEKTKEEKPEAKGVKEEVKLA
T7 sequence (O76083 whole entry, the tested form may be a part): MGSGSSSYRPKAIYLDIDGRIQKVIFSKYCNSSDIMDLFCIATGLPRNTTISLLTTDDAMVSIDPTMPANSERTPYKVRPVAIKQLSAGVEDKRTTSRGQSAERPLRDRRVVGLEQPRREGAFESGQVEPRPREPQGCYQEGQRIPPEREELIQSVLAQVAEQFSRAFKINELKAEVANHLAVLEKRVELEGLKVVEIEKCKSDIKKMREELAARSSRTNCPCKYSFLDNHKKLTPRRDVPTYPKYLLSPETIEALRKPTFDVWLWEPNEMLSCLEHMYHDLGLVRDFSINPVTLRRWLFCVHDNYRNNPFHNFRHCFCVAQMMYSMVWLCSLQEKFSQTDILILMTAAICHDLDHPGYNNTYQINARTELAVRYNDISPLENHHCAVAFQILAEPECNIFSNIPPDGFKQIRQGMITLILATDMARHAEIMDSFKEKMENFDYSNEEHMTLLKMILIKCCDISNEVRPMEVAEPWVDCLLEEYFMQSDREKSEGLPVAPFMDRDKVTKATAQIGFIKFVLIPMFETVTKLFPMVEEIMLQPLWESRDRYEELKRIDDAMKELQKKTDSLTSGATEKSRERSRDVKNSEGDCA
T2 sequence (O15379 whole entry): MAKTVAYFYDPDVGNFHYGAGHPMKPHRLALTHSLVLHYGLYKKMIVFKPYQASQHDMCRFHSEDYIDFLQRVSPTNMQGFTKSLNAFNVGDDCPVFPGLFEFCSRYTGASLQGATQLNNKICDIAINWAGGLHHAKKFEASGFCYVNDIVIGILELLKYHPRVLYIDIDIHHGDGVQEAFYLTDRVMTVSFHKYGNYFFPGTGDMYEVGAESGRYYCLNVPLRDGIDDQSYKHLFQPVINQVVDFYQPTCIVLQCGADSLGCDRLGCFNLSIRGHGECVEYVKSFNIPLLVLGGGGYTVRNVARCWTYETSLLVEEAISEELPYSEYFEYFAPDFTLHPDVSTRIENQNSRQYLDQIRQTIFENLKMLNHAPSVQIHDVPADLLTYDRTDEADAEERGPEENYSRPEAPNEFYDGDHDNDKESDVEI
Sequence of 72 kDa type IV collagenase (P08253 whole entry): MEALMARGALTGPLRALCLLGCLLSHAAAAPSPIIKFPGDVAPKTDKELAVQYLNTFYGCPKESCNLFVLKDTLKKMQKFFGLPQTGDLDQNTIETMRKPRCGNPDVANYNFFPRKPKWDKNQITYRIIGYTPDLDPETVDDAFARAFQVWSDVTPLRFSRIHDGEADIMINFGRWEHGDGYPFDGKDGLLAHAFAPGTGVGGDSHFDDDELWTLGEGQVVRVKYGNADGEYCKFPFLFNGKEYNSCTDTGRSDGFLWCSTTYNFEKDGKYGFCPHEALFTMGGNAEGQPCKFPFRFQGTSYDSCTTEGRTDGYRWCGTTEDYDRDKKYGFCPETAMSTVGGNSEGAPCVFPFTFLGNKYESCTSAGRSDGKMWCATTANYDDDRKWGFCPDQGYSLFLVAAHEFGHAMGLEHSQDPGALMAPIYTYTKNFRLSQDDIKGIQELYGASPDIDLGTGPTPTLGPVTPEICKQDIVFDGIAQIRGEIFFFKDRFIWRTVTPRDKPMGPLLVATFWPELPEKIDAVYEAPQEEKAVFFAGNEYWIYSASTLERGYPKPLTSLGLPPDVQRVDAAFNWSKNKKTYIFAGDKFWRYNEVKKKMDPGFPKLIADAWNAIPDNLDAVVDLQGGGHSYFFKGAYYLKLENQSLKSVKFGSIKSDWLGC
Sequence of Histone deacetylase 4 (P56524 whole entry): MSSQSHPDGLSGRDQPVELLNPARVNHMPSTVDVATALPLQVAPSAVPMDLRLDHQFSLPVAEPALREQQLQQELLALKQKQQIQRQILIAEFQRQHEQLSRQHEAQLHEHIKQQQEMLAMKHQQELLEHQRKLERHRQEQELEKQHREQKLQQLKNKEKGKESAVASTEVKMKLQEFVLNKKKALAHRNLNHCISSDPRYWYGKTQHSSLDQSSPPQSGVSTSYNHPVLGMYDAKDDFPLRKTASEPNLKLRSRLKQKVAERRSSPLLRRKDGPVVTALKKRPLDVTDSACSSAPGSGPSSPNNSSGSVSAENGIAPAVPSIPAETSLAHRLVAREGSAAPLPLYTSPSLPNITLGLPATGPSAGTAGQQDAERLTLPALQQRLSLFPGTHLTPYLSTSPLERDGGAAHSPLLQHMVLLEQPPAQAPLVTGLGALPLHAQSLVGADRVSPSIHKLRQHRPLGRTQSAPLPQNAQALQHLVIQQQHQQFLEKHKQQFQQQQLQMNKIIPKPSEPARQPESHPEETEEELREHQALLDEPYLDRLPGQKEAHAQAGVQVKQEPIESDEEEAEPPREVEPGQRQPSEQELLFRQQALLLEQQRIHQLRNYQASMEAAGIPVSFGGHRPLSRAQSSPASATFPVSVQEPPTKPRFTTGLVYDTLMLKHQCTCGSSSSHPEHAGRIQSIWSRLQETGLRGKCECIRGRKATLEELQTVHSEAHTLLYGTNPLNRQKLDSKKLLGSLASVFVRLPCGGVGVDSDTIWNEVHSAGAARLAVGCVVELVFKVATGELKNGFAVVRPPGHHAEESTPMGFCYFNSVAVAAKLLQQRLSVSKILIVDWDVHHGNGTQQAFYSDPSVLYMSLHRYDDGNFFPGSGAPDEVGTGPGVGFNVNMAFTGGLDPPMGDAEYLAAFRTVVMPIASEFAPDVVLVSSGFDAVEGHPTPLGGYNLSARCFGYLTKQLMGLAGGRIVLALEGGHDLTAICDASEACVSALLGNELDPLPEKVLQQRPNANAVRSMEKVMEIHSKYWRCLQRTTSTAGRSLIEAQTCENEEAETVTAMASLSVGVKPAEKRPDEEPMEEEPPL
Sequence of Phosphatidylinositol 4,5-bisphosphate 3-kinase catalytic subunit alpha isoform (P42336 whole entry, canonical isoform): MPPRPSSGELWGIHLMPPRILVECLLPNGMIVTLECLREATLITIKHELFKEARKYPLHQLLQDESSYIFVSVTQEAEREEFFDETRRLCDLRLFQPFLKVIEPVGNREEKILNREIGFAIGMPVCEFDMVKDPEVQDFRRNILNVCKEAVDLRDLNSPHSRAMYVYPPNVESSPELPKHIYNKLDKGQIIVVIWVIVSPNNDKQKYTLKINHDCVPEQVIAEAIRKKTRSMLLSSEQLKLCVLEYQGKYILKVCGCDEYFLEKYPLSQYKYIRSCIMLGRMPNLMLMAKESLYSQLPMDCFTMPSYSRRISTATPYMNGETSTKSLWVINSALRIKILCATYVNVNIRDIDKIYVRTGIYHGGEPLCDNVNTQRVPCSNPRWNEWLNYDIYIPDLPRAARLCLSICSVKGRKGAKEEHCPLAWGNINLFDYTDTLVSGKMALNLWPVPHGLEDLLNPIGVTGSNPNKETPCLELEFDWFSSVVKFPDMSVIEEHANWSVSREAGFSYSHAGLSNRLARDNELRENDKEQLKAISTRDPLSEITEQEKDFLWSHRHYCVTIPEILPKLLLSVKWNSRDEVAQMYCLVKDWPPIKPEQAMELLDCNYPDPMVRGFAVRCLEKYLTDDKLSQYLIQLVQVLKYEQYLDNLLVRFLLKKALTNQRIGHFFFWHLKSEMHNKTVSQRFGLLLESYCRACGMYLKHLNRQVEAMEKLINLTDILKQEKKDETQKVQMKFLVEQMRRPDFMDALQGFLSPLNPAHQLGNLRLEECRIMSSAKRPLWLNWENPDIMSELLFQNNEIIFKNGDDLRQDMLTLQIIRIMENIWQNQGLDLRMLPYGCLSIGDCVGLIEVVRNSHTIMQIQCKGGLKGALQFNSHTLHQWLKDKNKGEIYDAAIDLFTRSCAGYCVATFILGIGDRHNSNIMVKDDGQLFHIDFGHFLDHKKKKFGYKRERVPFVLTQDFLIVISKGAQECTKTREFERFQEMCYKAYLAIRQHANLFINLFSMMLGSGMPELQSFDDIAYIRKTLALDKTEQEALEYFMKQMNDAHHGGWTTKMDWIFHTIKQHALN

In the case of `COc1cc([C@@H]2c3cc4c(cc3C[C@H]3COC(=O)[C@@H]32)OCO4)cc(OC)c1OC(=O)CC(=O)Nc1ccc(C(=O)Nc2ccccc2N)cc1`, the IC50 (HCT-116) is reported as 0.04 µM, the IC50 (Histone deacetylase 1 [1]) is reported as 11 µM and the IC50 (Histone deacetylase 3 [2]) is reported as 5.3 µM. The IC50 (Histone deacetylase 2 [3]) was 0.75 µM and the IC50 (A549 [4]) was 0.037 µM.
`O=C(NO)c1ccc(/C=N/NC(=O)c2cc(N3CCOCC3)nc(-c3cccc4[nH]ncc34)n2)cc1` showed an IC50 [5] of 0.00834 µM and an IC50 [6] of 0.0346 µM.
In the case of `Cn1c(CCCC(=O)O)nc2cc(N(CCCl)CCCl)ccc21` [BENDAMUSTINE], the IC50 (Histone deacetylase 2 [7]) is reported as 0.01 µM, the IC50 [8] is reported as 2.2 µM and the IC50 (Histone deacetylase 5) is reported as 0.01 µM. For the same compound, the IC50 (Histone deacetylase 1 [9]) was 0.01 µM, the IC50 (Histone deacetylase 4) was 0.01 µM and the IC50 (Histone deacetylase 3 [10]) was 0.01 µM. The IC50 [6] was 0.01 µM.
`CC(=O)SCCCCCCOc1ccc2c(c1)N(C)[C@@H](C(C)C)C(=O)N[C@H](CO)C2` gave a Ki [11] of 0.0087 µM.
For `O=C(O)CC[C@H](NC(=O)Cc1ccc(Br)cc1)C(=O)NCc1ccccc1`, the Activity (A549 [12]) was 34%, the IC50 [13] was 19.6 µM and the IC50 (Histone deacetylase 8) was 3.03 µM.
In the case of `CCCc1nn(C)c2c(=O)[nH]c(-c3cc(Cc4ccc(C(=O)Nc5ccccc5N)cc4)ccc3OCC)nc12`, the IC50 (Histone deacetylase 2 [7]) is reported as > 20 µM, the IC50 [14] is reported as 0.114 µM and the IC50 (Histone deacetylase 1 [9]) is reported as 0.673 µM. The IC50 [6] was > 20 µM.
With `CC(C)=CCC/C(C)=C/CC/C(C)=C/CSc1ccccc1C(=O)O` [SALIRASIB] the IC50 (SMMC-7721) was 6.7 µM.
With `CCCc1nn(C)c2c(=O)[nH]c(-c3cc(CC4CC(C(=O)NO)C4)ccc3OCC)nc12` (stereo not given) the IC50 [15] was > 10 µM, the IC50 [16] was 0.081 µM and the IC50 (Histone deacetylase 1 [17]) was 0.31 µM. It also gave an IC50 [18] of 0.06 µM.
With `C[C@H]1CN(Cc2ccc(/C=C/C(=O)NO)cc2)C[C@@H]1c1nc2c(cnn2C2CCOCC2)c(=O)[nH]1` the IC50 (Histone deacetylase 2 [7]) was 1.25 µM, the IC50 [19] was > 10 µM and the IC50 (Histone deacetylase 1 [9]) was 0.138 µM. It also gave an IC50 [20] of 0.008 µM and an IC50 [6] of 0.508 µM.
Work on `COc1ccc(CNC(=O)[C@H](CCC(=O)O)NC(=O)Cc2ccc(Br)cc2)cc1` yielded an Activity (A549 [12]) of 34%, an IC50 [13] of 6.4 µM and an IC50 (Histone deacetylase 8) of 2.89 µM.
In the case of `O=C(CCCCCOc1ccc(-c2nc3ccccc3c3cc(-c4ccccc4)nn23)cc1)NO`, the IC50 (A549 [21]) is reported as 0.72 µM.
In the case of `O=C(CCCCNC(=S)Nc1ccc(/C=C/C(=O)c2cccnc2)cc1)NO`, the EC50 (Cortical neurone) is reported as 3.7 µM, the IC50 [22] is reported as 13.3 µM and the IC50 (Histone deacetylase 1 [9]) is reported as 3.38 µM. For the same compound, the IC50 [6] was 4.1 µM.
